From patent publication US20070225213A1, “Nucleic acid carriers for delivery of therapeutic agents” (priority 2006, published 2007)
Values joined by “and” are separate entries in the source; they are usually repeats but may differ in a detail not shown here. Equal values may be shown once.

How the values were obtained:
[1] = Paclitaxel solubilization by NAC, turbidity OD410 (Example 8); assay type: physicochemical; conditions: formulation with a nucleic acid
Method: Solubility enhancement of paclitaxel by NAC. Aqueous paclitaxel solutions were prepared with or without DNA, sonicated, stored at room temperature for several hours, and then centrifuged. The pellets were resuspended in 50% ethanol and the precipitated paclitaxel was quantified using a standard absorbance curve at 230 nm. The total percentage of solubilized paclitaxel was calculated using %=100× (1-assy mM)/expected mM.
Materials: Paclitaxel 10.0 mg/ml (0.0118M, m.w. 853.92) in 80% ETOH. HSDNA (herring sperm degraded DNA 428A, Sigma-Aldrich) 10 mg/ml pH7 HSGDNA (genomic, Promega mw range 100 bp-3000 bp) 10 mg/ml. […] 1M potassium phosphate buffer pH5.
Aqueous paclitaxel solutions were prepared by combining 10 ul (0.01 ml) of paclitaxel stock (11.8 mM) with 2.0 ml H2O containing water only, HSGDNA, HSDNA, RNA, or HSDNA/pPEGPEI2K as indicated in the table. Samples were sonicated 3 min. with Branson Sonifier 450 @40% duty, at #3 output level. In 10 mM potassium phosphate pH5.
Let solutions stand 30 min, and read turbidity of 0.3 ml at A410 on the Synergy HT1. Samples were 10 min @2500 rpm on Beckman Allegra21R. The pellet was resuspended in 1.5 ml of 50% ETOH and OD230 nm was taken of a 0.3 ml sample in a Falcon UV clear plate on Synergy HT1. Prepared paclitaxel standard curve, 10 ul of 9.81 mM in 1 ml 50% ETOH was diluted 2×, serially in 5 vials at 0.5 ml final vol. […]

[2] = physiological conditions; cited from earlier work
MCF7 cells = experiment: Drug loading vs toxicity at fixed [drug], MTT viability assay (Example 4); assay type: cell-based, human; conditions: Drug only, without carrier; 0.103 mM DOX; 72 hours
Method: FIG. 1. […] NAC-MTN or NAC-DOX were prepared at different weight:weight % of drug:nucleic acid and incubated in cells. For each sample and corresponding % loading, the total drug was held constant at 0.058 mM MTN or 0.1 mM DOX. After incubation in cells, cell viability was assayed via mitochondrial dehydrogenase activity against 3-[4,5-dimethylthiazol-2-yl]-2,5-diphenyl tetrazolium bromide (MTT) and reported as % toxicity relative to untreated cells.
Mitoxantrone (MTN, Sigma Aldrich) and Doxorubicin HCl (DOX) were diluted in HBSS to 1 mg/ml final. DNA, from degraded herring sperm DNA <40 bp (HSDNA, Sigma Aldrich), was prepared in water at 10 mg/ml. The drug was diluted in water or HBSS first, followed by addition of the DNA, in order to prevent precipitation. Precipitation of drug was especially a concern at 40% loading of MTN, which is the loading limit for HSDNA (degraded) and so the DNA is added slowly to the diluted MTN (the reverse addition leads to precipitation). All NAC-MTN formulation stocks were prepared at 0.15 mg/ml final MTN, and different concentration of DNA in order to give 15, 25, and 35.7% final drug loading w/w % of MTN/DNA in 0.5 ml final volume. All NAC-DOX formulations were prepared at 0.3 mg/ml final DOX, and either 5, 10, or 15% loaded drug weight/weight % of DOX/DNA in 0.5 ml final volume. […]

[3] = after 5 days; cited from earlier work
[4] = Stability of NAC-DOX complex in hank's buffered saline (HBSS) at pH 7; assay type: physicochemical
Method: The NAC-DOX complex was tested for stability in hank's buffered saline (HBSS) at pH 7.

human MCF-7 cells = experiment: Visually scored toxicity of NAC-MTN / NAC-DOX at fixed loading (Example 3); assay type: cell-based; conditions: 5.1% drug loading, 16 hour incubation
Method: Toxicity of NAC-MTN or NAC-DOX, at 50, 16.9, 5.6, and 1.9 ug/ml final drug concentration and 5.1 % drug loading in human MCF-7 cells. Sample A: 15 mg of HSDNA (EX031804A) was combined with 0.76 mg MTN(mw 517.4) or (sample B) 0.76 mg DOX (mw 579.99) to give 152 ug/ml final drug and 5.1% loading in 5 ml final vol. Samples C, D were MTN, or DOX only controls at equivalent final [drug] without HSDNA. Sample E was HSDNA, no drug and sample F was H2O only. MCF-7 cells were trypsinized and plated out previously. Triplicate samples were diluted 0.1 ml in 0.2 ml 1× media to give 3× fold serial dilution in 0.2 ml final. After 16 hour incubation the cells were visually inspected for signs of toxicity. Toxicity was scored as the following: 50%=one half all cells rounded, un-adhered or crenated.

[5] = Dipyridamole precipitation assay, supernatant absorbance A410 (Example 6); assay type: physicochemical
Method: Similar results were obtained for dipyridamole (DPA). Dipyridamole is a coronary vasodilator and functions primarily to reduce platelet adhesion and aggregation. […] Dipyridamole for intravenous injection is given as a sodium chloride or dextrose injection with 5 mg of DPA, 50 mg PEG600, 2 mg tartaric acid, and water at pH 2.7. Dipyridamole is readily soluble in acidic solution, however at higher pH it can precipitate. […] Furthermore, the nucleic acid targeting of dipyridamole can provide unexpected therapeutic benefits by enhancing its accumulation in specific areas of the body.
Dipyridamole (DPA, m.w. 504.6) was prepared as 10.27 mM […] solution in water acidified with HCl. DNA was from HSDNA 428A) 10 mg/ml in H2O prev. heated to 80C.
Prepared samples 1-3 by combining 25 ul of DPA and 0.2 ml DNA to give a turbid solution. Added 7 ul of 1M HCl to clarify, followed by 0.1 ml of 1M potassium phosphate buffer (KP) pH7. Repeated for samples 4-6 and replace DNA with water. […] Read absorbance of 0.3 ml supernatant at A410. Higher values corresponded to more drug solubilized.

| Compound | Toxicity (visual score) (human MCF-7 cells; 17 ug/ml final drug) | Toxicity (visual score) (human MCF-7 cells; 5.6 ug/ml final drug) | Toxicity (visual score) (human MCF-7 cells; 50 ug/ml final drug) | Toxicity (visual score) (human MCF-7 cells; 1 .9 ug/ml final drug) | also measured |
| --- | --- | --- | --- | --- | --- |
| CC(=O)O[C@H]1C(=O)[C@@]2(C)[C@H]([C@H](OC(=O)c3ccccc3)[C@]3(O)C[C@H](OC(=O)[C@H](O)[C@@H](NC(=O)c4ccccc4)c4ccccc4)C(C)=C1C3(C)C)[C@]1(OC(C)=O)CO[C@@H]1C[C@@H]2O [paclitaxel] |  |  |  |  | enhancement of solubility of paclitaxel compared with water alone [1]: ≤ 200% |
| Mylotarg: mAB-calcheamicin conjugate with hydrazone linker |  |  |  |  | drug existing in free form [2]: approximately 50% |
| COc1cccc2c1C(=O)c1c(O)c3c(c(O)c1C2=O)C[C@@](O)(C(=O)CO)C[C@@H]3O[C@H]1C[C@H](N)[C@H](O)[C@H](C)O1 [DOX, doxorubicin] | 80-90% |  |  |  | % Tox (MCF7 cells): 67%; administered drug recovered in urine [3]: 4-5%; stability in hank's buffered saline (HBSS) at pH 7 [4]: became unstable at pH 7 |
| COc1cccc2c1C(=O)c1c(O)c3c(c(O)c1C2=O)C[C@@](O)(C(=O)CO)C[C@@H]3O[C@H]1C[C@H](N)[C@H](O)[C@H](C)O1 [Sample D, doxorubicin] | 80% | 20% | 100% | 10% |  |
| O=C1c2c(O)ccc(O)c2C(=O)c2c(NCCNCCO)ccc(NCCNCCO)c21 [C, mitoxantrone] | 100% | 90% | 100% | 20% |  |
| OCCN(CCO)c1nc(N2CCCCC2)c2nc(N(CCO)CCO)nc(N3CCCCC3)c2n1 [DPA, dipyridamole] |  |  |  |  | stability against precipitation ([5]; formulated with the nucleic acid carrier, aqueous solutions at pH 7): stabilized dipyridamole against precipitation; A410 of supernatant ([5]; potassium phosphate buffer pH7, 16 hours, higher = more drug solubilized, replicate samples): 0.388 and 0.396 and 0.401 |
